Test results taken from US6476062B2, “Chemokine receptor antagonists” (Schering Corporation, priority 2000, dated 2002).

Molecular target: T1, human CCR5 chemokine receptor (Homo sapiens, UniProt P51681)
T1 construct: expressed in transfected cells; host or cells: NIH 3T3 cells (mouse fibroblasts) expressing human CCR5; membranes prepared from them
Test: CCR5 membrane binding assay (inhibition of 125I-RANTES binding)
Details: membranes from NIH 3T3 cells expressing human CCR5; 0.05 nM 125I Rantes; one hour; replicates of four; read-out: IC50, 50 percent inhibition of total membrane binding of 125I Rantes
Description: A high throughput screen utilizing a CCR5 membrane binding assay identifies inhibitors of RANTES binding. This assay utilizes membranes prepared from NIH 3T3 cells expressing the human CCR5 chemokine receptor which have the ability to bind to RANTES, a natural ligand for the receptor. Using a 96-well plate format, membrane preparations are incubated with ^125I-RANTES in the presence or absence of compound for one hour. Compounds are serially diluted over a wide range of 0.001 ug/ml to 1 ug/ml and tested in triplicates. Reaction cocktails are harvested through glass fiber filters, and washed thoroughly. Total counts for replicates are averaged and data reported as the concentration required to inhibit 50 percent of total ^125I-RANTES binding. Compounds with potent activity in the membrane binding assay are further characterized in secondary cell-based HIV-1 entry and replication assays.
The activity of the compound of formula II was evaluated in the CCR5 membrane binding assay. The assay utilizes membranes prepared from NIH 3T3 cells which express human CCR5 chemokine receptor. RANTES (Regulated upon Activation, Normal T cell Expressed and Secreted) is a natural ligand for the CCR5. […] Total counts for replicates are averaged and 50 percent inhibition of total membrane binding of ^125I Rantes is determined.

T1 sequence (P51681 whole entry): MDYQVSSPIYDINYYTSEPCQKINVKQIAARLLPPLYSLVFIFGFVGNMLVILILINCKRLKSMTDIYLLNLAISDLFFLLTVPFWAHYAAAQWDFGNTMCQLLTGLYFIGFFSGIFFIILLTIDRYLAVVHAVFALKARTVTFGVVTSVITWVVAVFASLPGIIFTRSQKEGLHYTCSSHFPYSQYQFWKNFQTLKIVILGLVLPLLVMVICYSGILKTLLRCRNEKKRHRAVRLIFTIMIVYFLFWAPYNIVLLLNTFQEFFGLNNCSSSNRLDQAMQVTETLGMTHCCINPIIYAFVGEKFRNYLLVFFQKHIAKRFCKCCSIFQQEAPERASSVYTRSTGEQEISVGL

## C/C=C(\C)[C@@H]1C=C[C@@H]2C[C@H](C)C[C@H](C)[C@H]2[C@@H]1/C(O)=C1/C(=O)N[C@H](C[C@@](C)(O)C(=O)O)C1=O [Compound II]
  IC50: 78.6 nM
